The results in this text go back to article PMC6632053, “Incorporation of Putative Helix-Breaking Amino Acids in the Design of Novel Stapled Peptides: Exploring Biophysical and Cellular Permeability Properties” (Molecules, 2019).

As a reminder, the EC50 is the midpoint of the concentration-response curve. One may read the Kd as the constant that tells how readily two partners part at equilibrium.

Where two headings read alike, the source gives them in different places. Bridge positions count the residues as written; N and C are the ends. Square brackets hold non-standard residues; d marks the D form. Peptide text beside a SMILES is read from it. Lys(N3) = [N-]=[N+]=NCCCC[C@H](N)C(=O)O; R8 = C=CCCCCCC[C@@](C)(N)C(=O)O; Cba = N[C@@H](CC1CCC1)C(=O)O; S5 = C=CCCC[C@](C)(N)C(=O)O; Aib = CC(C)(N)C(=O)O; βAla = NCCC(=O)O

In data set [1] the test system is p53 responsive β-lactamase reporter in HCT116 cells. Briefly: p53 beta-lactamase reporter gene cellular functional assay. The class given is cell-based. The note with it: p53 reporter assay, HCT116, read-out: Cellular (µM), cellular activity (EC50). On the procedure:
HCT116 cells were stably transfected with a p53 responsive β-lactamase reporter and were seeded into a 384-well plate at a density of 8000 cells per well. Cells were maintained in McCoy’s 5A Medium with 10% fetal bovine serum (FBS), Blasticidin, and Penicillin/Streptomycin. The cells were incubated overnight, followed by removal of cell growth media and replacement with Opti-MEM either containing 0% FBS or 10% FBS. […] The final working concentration of DMSO was 0.5%. β-lactamase activity was detected using the ToxBLAzer Dual Screen (Invitrogen), as per the manufacturer’s instructions. Measurements were made using the Envision multiplate reader (Perkin–Elmer).
A general note: Reporter assays use an easily measured gene product as a stand-in for the process of interest.

The nature of data set [2]: Circular dichroism (CD) α-helicity. The class given is physicochemical. The note with it: Table 2; CD of free peptide, 25 °C, 1 mM Hepes pH 7.4, 5% methanol. On the procedure:
A total of 5 µL of the 10 mM stock peptide was mixed with 45 µL of 100% methanol, and dried for 2 h in the SpeedVac concentrator (Thermo Scientific). The dried peptide was reconstituted in a buffer (1 mM Hepes pH 7.4 and 5% methanol) to a concentration of 1 mM. The peptide sample was placed in a quartz cuvette with a path length of 0.2 cm. The peptide concentration was determined by the absorbance of the peptide at […]. The CD spectrum was recorded from 300 to 190 nm using the Chirascan-plus qCD machine (Applied Photophysics, Surrey, UK), at 25 °C. All experiments were done in duplicates. The CD spectrum was converted to mean residue ellipticity, before deconvolution and estimation of the secondary structure components of the peptide using the CDNN software (distributed by Applied Photophysics).
On the technique in general: Circular dichroism is widely used to follow secondary structure.

The next data set addresses T1, human Mdm2 1–125 (Homo sapiens, UniProt Q00987).
T1 construct: GST (N); His6 (internal); TEV cleavage site ENLYFQG (internal); made in house; host or cells: Escherichia coli BL21 (DE3) Rosetta T1R
Briefly: Mdm2 binding assay (competitive fluorescence anisotropy/polarization). The note with it: Table 1; competitive fluorescence polarization; read-out: Mdm2 (nM), Mdm2 binding (Kd). The procedure: The TEV (tobacco etch virus) cleavage site was changed from ENLYFQS to ENLYFQG to give a fusion protein with the following sequence:
Titrations were carried out with the concentration of Mdm2 held constant at 250 nM and the labeled peptide at 50 nM. The competing molecules were then titrated against the complex of the FAM-labeled peptide and protein. Apparent Kd values were determined by fitting the experimental data to the equations shown below:(2) r=r0+(rb−r0)×2(d^2−3e)cos(θ/3)−9/3Kd1+2(d^2−3e)cos(θ/3)−dd=Kd1+Kd2+[L]st+[L]t−[P]te=([L]t−[P]t)Kd1+([L]st−[P]t)Kd2+Kd1Kd2f=−Kd1Kd2[P]tθ=arcos[−2d^3+9de−27f/2(d^2−3e)^3] where [L]st and [L]t denote labeled ligand and total unlabeled ligand input concentrations, respectively. Kd2 is the dissociation constant of the interaction between the unlabeled ligand and the protein. In all competition experiments, it was assumed that [P]t > [L]st, otherwise considerable amounts of free labeled ligand would always be present and would interfere with measurements. Kd1 is the apparent Kd for the labeled peptide used and was experimentally determined as described in the previous paragraph. The FAM-labeled peptide was dissolved in dimethyl sulfoxide (DMSO) at 1 mM and diluted into the experimental buffer. Readings were carried out with an Envision Multilabel Reader (PerkinElmer). Experiments were carried out in PBS (2.7 mM KCl, 137mM NaCl, 10 mM Na2HPO4, and 2 mM KH2PO4 (pH 7.4)) and 0.1% Tween 20 buffer. All titrations were carried out in triplicate. Curve-fitting was carried out using Prism 4.0 (GraphPad). […] Negative control titrations of the ligands under investigation were also carried out with the fluorescently labeled peptide (in the absence of Mdm2) to ensure no interactions were occurring between the ligands and the FAM-labeled peptide.
In general terms: In fluorescence polarisation assays a small probe gives low polarisation when free and higher when bound to something large.

T1 sequence (Q00987 with tags, fused parts or gaps): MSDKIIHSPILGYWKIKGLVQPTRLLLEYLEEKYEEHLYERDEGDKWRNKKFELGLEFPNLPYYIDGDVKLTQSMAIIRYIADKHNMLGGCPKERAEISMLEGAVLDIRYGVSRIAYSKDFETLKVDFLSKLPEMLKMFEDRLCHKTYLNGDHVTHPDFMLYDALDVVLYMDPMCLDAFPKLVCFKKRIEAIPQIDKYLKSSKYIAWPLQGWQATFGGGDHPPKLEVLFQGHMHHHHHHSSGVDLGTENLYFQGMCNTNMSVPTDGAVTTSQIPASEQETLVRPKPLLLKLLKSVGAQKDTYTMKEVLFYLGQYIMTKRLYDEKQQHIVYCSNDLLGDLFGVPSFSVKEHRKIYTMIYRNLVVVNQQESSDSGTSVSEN

In the case of `CC(=O)N[C@@H](CCCCN=[N+]=[N-])C(=O)NCCC(=O)N[C@@H](CC(C)C)C(=O)N[C@H](C(=O)N[C@@H](Cc1ccccc1)C(=O)N[C@]1(C)CCCCCCC=CCCC[C@@](C)(C(=O)N[C@@H](C)C(=O)NC(C)(C)C(=O)N[C@@H](C)C(N)=O)NC(=O)[C@H](CC2CCC2)NC(=O)[C@H](CCC(N)=O)NC(=O)[C@H](C)NC(=O)[C@H](Cc2c[nH]c3ccccc23)NC(=O)[C@H](Cc2ccc(O)cc2)NC(=O)[C@H](CCC(=O)O)NC1=O)[C@@H](C)O` [A13(Aib)] (Ac-[Lys(N3)][βAla]LTF[R8]EYWAQ[Cba][S5]A[Aib]A-NH2; staple 6-13), the EC50 in data set [1] (Table 2) worked out at 0.59 µM. Besides, the “Helicity (%)” value in data set [2] was 34.4%.

For the compound `CC(=O)N[C@@H](CCCCN=[N+]=[N-])C(=O)NCCC(=O)NC(C)(C)C(=O)N[C@H](C(=O)N[C@@H](Cc1ccccc1)C(=O)N[C@]1(C)CCCCCCC=CCCC[C@@](C)(C(=O)N[C@@H](CO)C(=O)N[C@@H](C)C(=O)N[C@@H](C)C(N)=O)NC(=O)[C@H](CC2CCC2)NC(=O)[C@H](CCC(N)=O)NC(=O)[C@H](C)NC(=O)[C@H](Cc2c[nH]c3ccccc23)NC(=O)[C@H](Cc2ccc(O)cc2)NC(=O)[C@H](CCC(=O)O)NC1=O)[C@@H](C)O` [L1(Aib)], the EC50 in data set [1] (Table 2) is 0.49 µM. Further, the “Helicity (%)” value in data set [2] is reported as 42.7%.

Regarding `CC(=O)N[C@@H](CCCCN=[N+]=[N-])C(=O)NCCC(=O)N[C@@H](CC(C)C)C(=O)N(C)[C@H](C(=O)N[C@@H](Cc1ccccc1)C(=O)N[C@]1(C)CCCCCCC=CCCC[C@@](C)(C(=O)N[C@@H](CO)C(=O)N[C@@H](C)C(=O)N[C@@H](C)C(N)=O)NC(=O)[C@H](CC2CCC2)NC(=O)[C@H](CCC(N)=O)NC(=O)[C@H](C)NC(=O)[C@H](Cc2c[nH]c3ccccc23)NC(=O)[C@H](Cc2ccc(O)cc2)NC(=O)[C@H](CCC(=O)O)NC1=O)[C@@H](C)O` [T2(N-methyl L-Thr)], the EC50 in data set [1] (Table 2) was determined as 7.7 µM. In addition, in data set [2], the “Helicity (%)” value is given as 38.2%.

For `CC(=O)N[C@@H](CCCCN=[N+]=[N-])C(=O)NCCC(=O)N[C@@H](CC(C)C)C(=O)N[C@H](C(=O)N[C@@H](Cc1ccccc1)C(=O)N[C@]1(C)CCCCCCC=CCCC[C@@](C)(C(=O)N[C@@H](CO)C(=O)N[C@@H](C)C(=O)N[C@@H](C)C(N)=O)NC(=O)[C@H](CC2CCC2)NC(=O)[C@H](CCC(N)=O)NC(=O)C(C)(C)NC(=O)[C@H](Cc2c[nH]c3ccccc23)NC(=O)[C@H](Cc2ccc(O)cc2)NC(=O)[C@H](CCC(=O)O)NC1=O)[C@@H](C)O` [A8(Aib)], the EC50 in data set [1] (Table 2) was 1.5 µM. Besides, in data set [2], the “Helicity (%)” value amounted to 37.5%.

`CC(=O)N[C@@H](CCCCN=[N+]=[N-])C(=O)NCCC(=O)N[C@@H](CC(C)C)C(=O)N[C@H](C(=O)N[C@@H](Cc1ccccc1)C(=O)N[C@]1(C)CCCCCCC=CCCC[C@@](C)(C(=O)N[C@@H](CO)C(=O)N[C@@H](C)C(=O)N[C@@H](C)C(N)=O)NC(=O)[C@H](CC2CCC2)NC(=O)C(C)(C)NC(=O)[C@H](C)NC(=O)[C@H](Cc2c[nH]c3ccccc23)NC(=O)[C@H](Cc2ccc(O)cc2)NC(=O)[C@H](CCC(=O)O)NC1=O)[C@@H](C)O` [Q9(Aib)]: the EC50 in data set [1] (Table 2) was 0.25 µM. Also, in data set [2], the “Helicity (%)” value came out at 28%.

Regarding `CC(=O)N[C@@H](CC(C)C)C(=O)N[C@H](C(=O)N[C@@H](Cc1ccccc1)C(=O)N[C@]1(C)CCCCCCC=CCCC[C@@](C)(C(=O)N[C@@H](CO)C(=O)N[C@@H](C)C(=O)N[C@@H](C)C(N)=O)NC(=O)[C@H](CC2CCC2)NC(=O)[C@H](CC(C)C)NC(=O)[C@H](CCC(N)=O)NC(=O)[C@H](C)NC(=O)[C@H](Cc2ccc(O)cc2)NC(=O)[C@H](CCC(=O)O)NC1=O)[C@@H](C)O` [Peptide W7A] (Ac-LTF[R8]EYAQL[Cba][S5]SAA-NH2; staple 4-11), on human Mdm2 1–125, the Kd came to 5090 nM. Further, the EC50 in data set [1] (Table 1) worked out at 8.8 µM.

For the compound `CC(=O)N[C@@H](CCCCN=[N+]=[N-])C(=O)NCCC(=O)N[C@@H](CC(C)C)C(=O)N[C@H](C(=O)N[C@@H](Cc1ccccc1)C(=O)N[C@]1(C)CCCCCCC=CCCC[C@@](C)(C(=O)NC(C)(C)C(=O)N[C@@H](C)C(=O)N[C@@H](C)C(N)=O)NC(=O)[C@H](CC2CCC2)NC(=O)[C@H](CCC(N)=O)NC(=O)[C@H](C)NC(=O)[C@H](Cc2c[nH]c3ccccc23)NC(=O)[C@H](Cc2ccc(O)cc2)NC(=O)[C@H](CCC(=O)O)NC1=O)[C@@H](C)O` [S12(Aib)], the EC50 in data set [1] (Table 2) worked out at 0.25 µM. Also, in data set [2], the “Helicity (%)” value came to 37.3%.

Regarding `CC(=O)N[C@@H](CCCCN=[N+]=[N-])C(=O)NCCC(=O)N(C)[C@@H](CC(C)C)C(=O)N[C@H](C(=O)N[C@@H](Cc1ccccc1)C(=O)N[C@]1(C)CCCCCCC=CCCC[C@@](C)(C(=O)N[C@@H](CO)C(=O)N[C@@H](C)C(=O)N[C@@H](C)C(N)=O)NC(=O)[C@H](CC2CCC2)NC(=O)[C@H](CCC(N)=O)NC(=O)[C@H](C)NC(=O)[C@H](Cc2c[nH]c3ccccc23)NC(=O)[C@H](Cc2ccc(O)cc2)NC(=O)[C@H](CCC(=O)O)NC1=O)[C@@H](C)O` [L1(N-methyl L-Leu)], in data set [1] (Table 2), the EC50 is 0.46 µM. Also, in data set [2], the “Helicity (%)” value amounted to 32.6%.

In the case of `CC(=O)N[C@@H](CCCCN=[N+]=[N-])C(=O)NCCC(=O)N[C@@H](CC(C)C)C(=O)N[C@H](C(=O)N[C@@H](Cc1ccccc1)C(=O)N[C@]1(C)CCCCCCC=CCCC[C@@](C)(C(=O)N[C@@H](CO)C(=O)N[C@@H](C)C(=O)N(C)[C@@H](C)C(N)=O)NC(=O)[C@H](CC2CCC2)NC(=O)[C@H](CCC(N)=O)NC(=O)[C@H](C)NC(=O)[C@H](Cc2c[nH]c3ccccc23)NC(=O)[C@H](Cc2ccc(O)cc2)NC(=O)[C@H](CCC(=O)O)NC1=O)[C@@H](C)O` [A14(N-methyl L-Ala)], in data set [1] (Table 2), the EC50 amounted to 0.71 µM. Besides, the “Helicity (%)” value in data set [2] came to 47.5%.

For the compound `CC(=O)N[C@@H](CCCCN=[N+]=[N-])C(=O)NCCC(=O)N[C@@H](CC(C)C)C(=O)NC(C)(C)C(=O)N[C@@H](Cc1ccccc1)C(=O)N[C@]1(C)CCCCCCC=CCCC[C@@](C)(C(=O)N[C@@H](CO)C(=O)N[C@@H](C)C(=O)N[C@@H](C)C(N)=O)NC(=O)[C@H](CC2CCC2)NC(=O)[C@H](CCC(N)=O)NC(=O)[C@H](C)NC(=O)[C@H](Cc2c[nH]c3ccccc23)NC(=O)[C@H](Cc2ccc(O)cc2)NC(=O)[C@H](CCC(=O)O)NC1=O` [T2(Aib)], the EC50 in data set [1] (Table 2) was determined as 2.9 µM. For the same compound, the “Helicity (%)” value in data set [2] was 38.3%.

Consider `CC(=O)N[C@@H](CC(C)C)C(=O)N[C@H](C(=O)N[C@@H](Cc1ccccc1)C(=O)N[C@]1(C)CCCCCCC=CCCC[C@@](C)(C(=O)N[C@@H](CO)C(=O)N[C@@H](C)C(=O)N[C@@H](C)C(N)=O)NC(=O)[C@@H](CC2CCC2)NC(=O)[C@H](CC(C)C)NC(=O)[C@H](CCC(N)=O)NC(=O)[C@H](Cc2c[nH]c3ccccc23)NC(=O)[C@H](Cc2ccc(O)cc2)NC(=O)[C@H](CCC(=O)O)NC1=O)[C@@H](C)O` [Cba10(D-Cba)], for which the Kd at human Mdm2 1–125 was determined as 1650 nM. The EC50 in data set [1] (Table 1) was 8.1 µM.

On to `CC(=O)N[C@@H](CCCCN=[N+]=[N-])C(=O)NCCC(=O)N(C)[C@@H](C)C(=O)N[C@H](C(=O)N[C@@H](Cc1ccccc1)C(=O)N[C@]1(C)CCCCCCC=CCCC[C@@](C)(C(=O)N[C@@H](CO)C(=O)N[C@@H](C)C(=O)N[C@@H](C)C(N)=O)NC(=O)[C@H](CC2CCC2)NC(=O)[C@H](CCC(N)=O)NC(=O)[C@H](C)NC(=O)[C@H](Cc2c[nH]c3ccccc23)NC(=O)[C@H](Cc2ccc(O)cc2)NC(=O)[C@H](CCC(=O)O)NC1=O)[C@@H](C)O` [L1(N-methyl L-Ala)], for which, in data set [1] (Table 2), the EC50 was 1.49 µM. The “Helicity (%)” value in data set [2] was determined as 47.2%.
